Measurements as given in ChEMBL document CHEMBL1201862, “PubChem BioAssay data set” (2004).
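48-hour exposure; five concentrations; linearly interpolated endpoints. GI50: concentration for 50% inhibition of growth.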 Calls of active or inactive are those of the source. Rule as the data show it: active = GI50 up to about 1.1 µM and inactive = higher.

What was measured:
Test in all cases: DTP human tumour cell line panel, 48 h
ACHN = system: ACHN
CCRF-CEM = system: CCRF-CEM
HT-29 = system: HT-29
Hs-578T = system: Hs-578T
IGROV-1 = system: IGROV-1
MCF7 = system: MCF7
MDA-MB-231 = system: MDA-MB-231
NCI-H226 = system: NCI-H226
NCI-H460 = system: NCI-H460
NCI-H522 = system: NCI-H522
OVCAR-3 = system: OVCAR-3
OVCAR-5 = system: OVCAR-5
PC-3 = system: PC-3
RPMI-8226 = system: RPMI-8226
RXF 393 = system: RXF 393
SF-295 = system: SF-295
SNB-75 = system: SNB-75
SR = system: SR
U-251 = system: U-251

With COc1ccc2c3c1OC1C34CCN(C)C(C2)C4=CC(I)C1(OC)OC (stereo not drawn) the GI50 (ACHN) was 11.3 µM (inactive), the GI50 (CCRF-CEM) was 1.32 µM (inactive) and the GI50 (HT-29) was 7.66 µM (inactive). The GI50 (Hs-578T) was 37 µM (inactive), the GI50 (IGROV-1) was 8.71 µM (inactive) and the GI50 (MCF7) was 5.08 µM (inactive). The GI50 (MDA-MB-231) was 18.5 µM (inactive), the GI50 (NCI-H226) was 18.6 µM (inactive) and the GI50 (NCI-H460) was 13.5 µM (inactive). For the same molecule, the GI50 (NCI-H522) was 5.27 µM (inactive), the GI50 (OVCAR-3) was 5.87 µM (inactive) and the GI50 (OVCAR-5) was 18.6 µM (inactive). The GI50 (PC-3) was 10.2 µM (inactive), the GI50 (RPMI-8226) was 2.71 µM (inactive) and the GI50 (RXF 393) was 10.5 µM (inactive). The GI50 (SF-295) was 41.5 µM (inactive), the GI50 (SNB-75) was 19.6 µM (inactive) and the GI50 (SR) was 2.36 µM (inactive). For the same molecule, the GI50 (U-251) was 16.2 µM (inactive).
[N-]=[N+]=Nc1c([N+](=O)[O-])c(Cl)nc2ccccc12 was tested, and the GI50 (ACHN) was 1.76 µM (inactive), the GI50 (CCRF-CEM) was 0.376 µM (active) and the GI50 (HT-29) was 2.18 µM (inactive). The GI50 (Hs-578T) was 3.12 µM (inactive), the GI50 (IGROV-1) was 2.09 µM (inactive) and the GI50 (MCF7) was 1.54 µM (inactive). For the same molecule, the GI50 (MDA-MB-231) was 1.85 µM (inactive), the GI50 (NCI-H226) was 10.6 µM (inactive) and the GI50 (NCI-H460) was 10.8 µM (inactive). For the same molecule, the GI50 (NCI-H522) was 0.293 µM (active), the GI50 (OVCAR-3) was 1.41 µM (inactive) and the GI50 (OVCAR-5) was 2.44 µM (inactive). For the same molecule, the GI50 (PC-3) was 1.91 µM (inactive), the GI50 (RPMI-8226) was 1.77 µM (inactive) and the GI50 (RXF 393) was 1.86 µM (inactive). For the same molecule, the GI50 (SF-295) was 19.4 µM (inactive), the GI50 (SNB-75) was 8.93 µM (inactive) and the GI50 (SR) was 0.604 µM (active). For the same molecule, the GI50 (U-251) was 5.96 µM (inactive).
CC(=O)NNC(=S)N/C=C1/C(=O)Oc2ccccc2C1=O was tested, and the GI50 (ACHN) was > 100 µM (inactive), the GI50 (CCRF-CEM) was > 100 µM (inactive) and the GI50 (HT-29) was > 100 µM (inactive). The GI50 (Hs-578T) was > 100 µM (inactive), the GI50 (IGROV-1) was > 100 µM (inactive) and the GI50 (MCF7) was > 100 µM (inactive). The GI50 (MDA-MB-231) was > 100 µM (inactive), the GI50 (NCI-H226) was > 100 µM (inactive) and the GI50 (NCI-H460) was > 100 µM (inactive). The GI50 (NCI-H522) was > 100 µM (inactive), the GI50 (OVCAR-3) was > 100 µM (inactive) and the GI50 (OVCAR-5) was > 100 µM (inactive). The GI50 (PC-3) was > 100 µM (inactive), the GI50 (RPMI-8226) was > 100 µM (inactive) and the GI50 (RXF 393) was 0.0703 µM (active). For the same molecule, the GI50 (SF-295) was > 100 µM (inactive), the GI50 (SNB-75) was > 100 µM (inactive) and the GI50 (SR) was > 100 µM (inactive). For the same molecule, the GI50 (U-251) was > 100 µM (inactive).
With CC1(C)OC[C@@H](O)[C@H](C#N)CO1 the GI50 (ACHN) was > 100 µM (inactive), the GI50 (CCRF-CEM) was > 100 µM (inactive) and the GI50 (HT-29) was > 100 µM (inactive). For the same molecule, the GI50 (Hs-578T) was > 100 µM (inactive), the GI50 (MCF7) was > 100 µM (inactive) and the GI50 (MDA-MB-231) was > 100 µM (inactive). For the same molecule, the GI50 (NCI-H226) was > 100 µM (inactive), the GI50 (NCI-H460) was > 100 µM (inactive) and the GI50 (NCI-H522) was > 100 µM (inactive). For the same molecule, the GI50 (OVCAR-3) was > 100 µM (inactive), the GI50 (OVCAR-5) was > 100 µM (inactive) and the GI50 (PC-3) was > 100 µM (inactive). The GI50 (RPMI-8226) was > 100 µM (inactive), the GI50 (RXF 393) was > 100 µM (inactive) and the GI50 (SF-295) was > 100 µM (inactive). The GI50 (SNB-75) was > 100 µM (inactive), the GI50 (SR) was > 100 µM (inactive) and the GI50 (U-251) was > 100 µM (inactive).
With Fc1cccc2nc(-c3ccccc3)cc(OCc3ccccc3)c12 the GI50 (ACHN) was > 100 µM (inactive), the GI50 (CCRF-CEM) was > 100 µM (inactive) and the GI50 (HT-29) was > 100 µM (inactive). For the same molecule, the GI50 (Hs-578T) was > 100 µM (inactive), the GI50 (IGROV-1) was > 100 µM (inactive) and the GI50 (MCF7) was 59.7 µM (inactive). For the same molecule, the GI50 (MDA-MB-231) was > 100 µM (inactive), the GI50 (NCI-H226) was > 100 µM (inactive) and the GI50 (NCI-H460) was > 100 µM (inactive). The GI50 (NCI-H522) was 71.8 µM (inactive), the GI50 (OVCAR-3) was > 100 µM (inactive) and the GI50 (OVCAR-5) was > 100 µM (inactive). The GI50 (PC-3) was > 100 µM (inactive), the GI50 (RPMI-8226) was > 100 µM (inactive) and the GI50 (RXF 393) was 69.5 µM (inactive). The GI50 (SF-295) was > 100 µM (inactive), the GI50 (SNB-75) was 65.6 µM (inactive) and the GI50 (SR) was > 100 µM (inactive). The GI50 (U-251) was > 100 µM (inactive).
CCOc1ccc(NCC2CC/C(=C\c3ccc(O)cc3)C2=O)cc1 (stereo not drawn) was tested, and the GI50 (ACHN) was 17 µM (inactive), the GI50 (CCRF-CEM) was 5.87 µM (inactive) and the GI50 (HT-29) was 15.6 µM (inactive). For the same molecule, the GI50 (Hs-578T) was 28.8 µM (inactive), the GI50 (IGROV-1) was 18.9 µM (inactive) and the GI50 (MCF7) was 3.61 µM (inactive). For the same molecule, the GI50 (MDA-MB-231) was 19.2 µM (inactive), the GI50 (NCI-H226) was 38.2 µM (inactive) and the GI50 (NCI-H460) was 23.2 µM (inactive). For the same molecule, the GI50 (NCI-H522) was 6.14 µM (inactive), the GI50 (OVCAR-3) was 12.2 µM (inactive) and the GI50 (OVCAR-5) was 15.6 µM (inactive). For the same molecule, the GI50 (PC-3) was 16.9 µM (inactive), the GI50 (RPMI-8226) was 4.02 µM (inactive) and the GI50 (RXF 393) was 18.7 µM (inactive). The GI50 (SF-295) was 24.5 µM (inactive), the GI50 (SNB-75) was 14.5 µM (inactive) and the GI50 (SR) was 2.19 µM (inactive). For the same molecule, the GI50 (U-251) was 16.7 µM (inactive).
For COC(CN(C)C(=S)Nc1cccc2ccccc12)OC, the GI50 (ACHN) was > 10 µM (inactive), the GI50 (CCRF-CEM) was > 10 µM (inactive) and the GI50 (HT-29) was > 10 µM (inactive). For the same molecule, the GI50 (Hs-578T) was > 10 µM (inactive), the GI50 (IGROV-1) was > 10 µM (inactive) and the GI50 (MCF7) was > 10 µM (inactive). For the same molecule, the GI50 (MDA-MB-231) was > 10 µM (inactive), the GI50 (NCI-H226) was > 10 µM (inactive) and the GI50 (NCI-H460) was > 10 µM (inactive). The GI50 (NCI-H522) was > 10 µM (inactive), the GI50 (OVCAR-3) was > 10 µM (inactive) and the GI50 (PC-3) was > 10 µM (inactive). The GI50 (RPMI-8226) was > 10 µM (inactive), the GI50 (RXF 393) was > 10 µM (inactive) and the GI50 (SF-295) was > 10 µM (inactive). For the same molecule, the GI50 (SNB-75) was > 10 µM (inactive), the GI50 (SR) was > 10 µM (inactive) and the GI50 (U-251) was > 10 µM (inactive).
With N#CC12CC(C=O)=C(N)C1(C#N)CC(C=O)=C2N (stereo not drawn) the GI50 (ACHN) was > 100 µM (inactive), the GI50 (CCRF-CEM) was 36.7 µM (inactive) and the GI50 (HT-29) was > 100 µM (inactive). The GI50 (Hs-578T) was 34 µM (inactive), the GI50 (IGROV-1) was 71.9 µM (inactive) and the GI50 (MCF7) was 58.9 µM (inactive). For the same molecule, the GI50 (MDA-MB-231) was > 100 µM (inactive), the GI50 (NCI-H226) was > 100 µM (inactive) and the GI50 (NCI-H522) was > 100 µM (inactive). For the same molecule, the GI50 (OVCAR-5) was > 100 µM (inactive), the GI50 (PC-3) was 72.3 µM (inactive) and the GI50 (RPMI-8226) was 52.6 µM (inactive). For the same molecule, the GI50 (RXF 393) was 41.9 µM (inactive), the GI50 (SF-295) was > 100 µM (inactive) and the GI50 (SNB-75) was 44.4 µM (inactive). For the same molecule, the GI50 (SR) was 37.7 µM (inactive) and the GI50 (U-251) was 55.3 µM (inactive).
